Results reported in ChEMBL document CHEMBL1933031, “Discovery and bioactivity of 4-(2-arylpyrido[3',2':3,4]pyrrolo[1,2-f][1,2,4]triazin-4-yl) morpholine derivatives as novel PI3K inhibitors” (Bioorg Med Chem Lett, 2012).
The source made the active and inactive calls. The calls are words filed in the database; no cut-off is given here.

Experiments:
[1] = target: Proto-oncogene tyrosine-protein kinase Src (Homo sapiens) (UniProt P12931); settings: at 10 µM
Description: Inhibition of c-Src at 10 uM

[2] = target: Mast/stem cell growth factor receptor Kit (Homo sapiens) (UniProt P10721); experiment: Inhibition of c-Kit at 10 uM
Chain of Mast/stem cell growth factor receptor Kit (Homo sapiens) (P10721 whole entry): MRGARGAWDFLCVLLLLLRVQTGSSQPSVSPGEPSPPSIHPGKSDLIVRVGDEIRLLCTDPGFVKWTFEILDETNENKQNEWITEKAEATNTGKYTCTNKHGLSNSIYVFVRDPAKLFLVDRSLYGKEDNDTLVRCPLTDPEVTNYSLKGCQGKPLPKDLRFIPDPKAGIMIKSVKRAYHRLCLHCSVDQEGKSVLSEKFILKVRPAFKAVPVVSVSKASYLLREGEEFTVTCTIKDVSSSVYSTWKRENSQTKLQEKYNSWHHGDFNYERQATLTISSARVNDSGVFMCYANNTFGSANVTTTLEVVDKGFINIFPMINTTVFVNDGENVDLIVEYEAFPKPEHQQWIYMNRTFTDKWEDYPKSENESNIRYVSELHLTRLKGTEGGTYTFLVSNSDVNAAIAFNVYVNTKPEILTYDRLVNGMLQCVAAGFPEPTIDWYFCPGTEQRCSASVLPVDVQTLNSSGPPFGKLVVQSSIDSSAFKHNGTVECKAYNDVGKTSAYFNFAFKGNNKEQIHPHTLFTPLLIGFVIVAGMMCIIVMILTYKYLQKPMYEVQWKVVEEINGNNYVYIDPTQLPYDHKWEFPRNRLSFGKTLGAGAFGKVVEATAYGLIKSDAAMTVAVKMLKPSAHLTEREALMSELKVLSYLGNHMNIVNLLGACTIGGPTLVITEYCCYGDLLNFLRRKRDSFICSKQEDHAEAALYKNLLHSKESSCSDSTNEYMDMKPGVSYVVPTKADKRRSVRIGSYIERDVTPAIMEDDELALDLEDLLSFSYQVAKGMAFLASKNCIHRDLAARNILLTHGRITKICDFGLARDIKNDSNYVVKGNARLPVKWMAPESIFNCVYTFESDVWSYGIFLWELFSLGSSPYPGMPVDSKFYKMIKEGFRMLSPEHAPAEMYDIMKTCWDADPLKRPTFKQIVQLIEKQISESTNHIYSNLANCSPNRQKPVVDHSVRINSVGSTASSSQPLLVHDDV

[3] = target: Proto-oncogene tyrosine-protein kinase receptor Ret (Homo sapiens) (UniProt P07949); experiment: Inhibition of RET at 10 uM
Chain of Proto-oncogene tyrosine-protein kinase receptor Ret (Homo sapiens) (P07949 whole entry): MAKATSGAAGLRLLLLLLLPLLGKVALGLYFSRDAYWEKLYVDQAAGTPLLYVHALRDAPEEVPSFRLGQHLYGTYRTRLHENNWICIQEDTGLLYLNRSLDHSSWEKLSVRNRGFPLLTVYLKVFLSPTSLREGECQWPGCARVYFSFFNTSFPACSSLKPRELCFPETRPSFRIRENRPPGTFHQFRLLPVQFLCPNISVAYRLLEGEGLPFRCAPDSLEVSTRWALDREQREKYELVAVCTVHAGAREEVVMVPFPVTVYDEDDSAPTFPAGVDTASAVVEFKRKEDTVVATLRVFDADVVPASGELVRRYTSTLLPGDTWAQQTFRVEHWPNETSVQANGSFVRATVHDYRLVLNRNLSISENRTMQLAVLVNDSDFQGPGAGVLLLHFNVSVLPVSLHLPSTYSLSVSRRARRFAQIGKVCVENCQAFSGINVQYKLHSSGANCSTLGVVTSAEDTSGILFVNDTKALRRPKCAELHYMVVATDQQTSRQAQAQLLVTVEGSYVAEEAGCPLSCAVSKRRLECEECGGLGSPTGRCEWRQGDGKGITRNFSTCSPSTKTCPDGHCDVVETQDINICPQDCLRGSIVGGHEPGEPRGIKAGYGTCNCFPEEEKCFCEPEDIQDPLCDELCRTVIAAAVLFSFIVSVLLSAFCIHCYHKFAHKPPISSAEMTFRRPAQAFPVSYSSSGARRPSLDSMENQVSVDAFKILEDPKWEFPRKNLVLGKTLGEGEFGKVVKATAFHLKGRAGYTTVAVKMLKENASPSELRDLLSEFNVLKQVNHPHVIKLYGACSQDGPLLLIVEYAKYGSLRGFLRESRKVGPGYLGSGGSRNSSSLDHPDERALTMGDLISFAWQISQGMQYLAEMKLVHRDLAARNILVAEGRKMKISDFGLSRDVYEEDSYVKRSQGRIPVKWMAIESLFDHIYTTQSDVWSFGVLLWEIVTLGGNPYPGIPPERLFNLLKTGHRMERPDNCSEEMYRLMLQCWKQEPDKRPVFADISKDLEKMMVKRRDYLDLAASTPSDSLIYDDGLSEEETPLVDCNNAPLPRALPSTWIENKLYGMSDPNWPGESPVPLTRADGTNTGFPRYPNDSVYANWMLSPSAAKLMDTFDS

[4] = test system: MCF7; experiment: Antiproliferative activity against human MCF7 cells; format: functional, cell-based
[5] = target: Phosphatidylinositol 4,5-bisphosphate 3-kinase catalytic subunit alpha isoform (Homo sapiens, UniProt P42336); experiment: Inhibition of PI3Kalpha by luminescent kinase assay
[6] = test system: ECV-304; experiment: Antiproliferative activity against human ECV304 cells; format: functional, cell-based
[7] = target: Macrophage-stimulating protein receptor (Homo sapiens) (UniProt Q04912); experiment: Inhibition of RON at 10 uM
[8] = target: Hepatocyte growth factor receptor (Homo sapiens) (UniProt P08581); experiment: Inhibition of c-Met at 10 uM
[9] = target: Platelet-derived growth factor receptor alpha (Homo sapiens) (UniProt P16234); experiment: Inhibition of PDGFRalpha at 10 uM
[10] = target: Insulin-like growth factor 1 receptor (Homo sapiens) (UniProt P08069); experiment: Inhibition of IGF1R at 10 uM
[11] = test system: HT-29; experiment: Antiproliferative activity against human HT-29 cells; format: functional, cell-based
[12] = Inhibition of PI3K-mediated Akt pathway by Western blot analysis
[13] = Inhibition of PI3K-mediated p70S6K1 phosphorylation at Thr389 at 3 uM by Western blot analysis
[14] = Cell cycle arrest in human Rh30 cells assessed as increase in subG1 cell phase at 10 uM by flow cytometric analysis; format: functional, cell-based; settings: SJRH30
[15] = target: Epidermal growth factor receptor (Homo sapiens) (UniProt P00533); settings: at 10 µM
Chain of Epidermal growth factor receptor (Homo sapiens) (P00533 whole entry): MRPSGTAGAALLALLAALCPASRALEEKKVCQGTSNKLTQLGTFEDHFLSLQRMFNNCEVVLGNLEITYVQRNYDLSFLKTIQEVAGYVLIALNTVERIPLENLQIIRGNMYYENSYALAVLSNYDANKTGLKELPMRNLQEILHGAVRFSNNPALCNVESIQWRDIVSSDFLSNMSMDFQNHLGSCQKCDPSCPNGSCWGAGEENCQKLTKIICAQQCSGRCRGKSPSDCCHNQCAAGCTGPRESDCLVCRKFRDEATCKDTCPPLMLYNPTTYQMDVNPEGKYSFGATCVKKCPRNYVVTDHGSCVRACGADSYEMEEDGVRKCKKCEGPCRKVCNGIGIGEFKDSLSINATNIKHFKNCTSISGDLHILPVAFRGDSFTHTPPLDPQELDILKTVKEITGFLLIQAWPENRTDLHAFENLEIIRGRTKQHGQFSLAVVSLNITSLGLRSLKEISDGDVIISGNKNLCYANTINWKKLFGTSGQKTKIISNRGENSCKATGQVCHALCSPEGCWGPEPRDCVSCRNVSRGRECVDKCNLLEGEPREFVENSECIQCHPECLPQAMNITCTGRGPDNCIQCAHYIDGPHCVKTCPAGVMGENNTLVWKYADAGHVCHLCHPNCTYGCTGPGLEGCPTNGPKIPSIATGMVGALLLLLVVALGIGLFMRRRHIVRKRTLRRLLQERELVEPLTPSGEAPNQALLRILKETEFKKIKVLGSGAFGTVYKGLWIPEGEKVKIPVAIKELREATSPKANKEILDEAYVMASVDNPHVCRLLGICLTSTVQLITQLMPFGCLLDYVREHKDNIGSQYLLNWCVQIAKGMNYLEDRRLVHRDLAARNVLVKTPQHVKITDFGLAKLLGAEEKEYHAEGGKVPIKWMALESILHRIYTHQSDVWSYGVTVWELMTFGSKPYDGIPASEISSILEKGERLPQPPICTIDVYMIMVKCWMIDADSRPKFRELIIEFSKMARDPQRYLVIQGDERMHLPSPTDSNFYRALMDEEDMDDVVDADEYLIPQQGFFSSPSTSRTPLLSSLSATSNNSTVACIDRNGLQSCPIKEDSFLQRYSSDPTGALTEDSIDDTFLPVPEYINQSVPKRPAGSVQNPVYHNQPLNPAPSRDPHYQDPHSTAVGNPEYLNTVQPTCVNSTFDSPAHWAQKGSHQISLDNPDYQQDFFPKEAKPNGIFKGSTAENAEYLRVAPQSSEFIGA
Description: Inhibition of EGFR at 10 uM

[16] = target: T1, Ephrin type-B receptor 2 (Homo sapiens) (UniProt P29323); experiment: Inhibition of EPH-B2 at 10 uM
T1 sequence (whole entry): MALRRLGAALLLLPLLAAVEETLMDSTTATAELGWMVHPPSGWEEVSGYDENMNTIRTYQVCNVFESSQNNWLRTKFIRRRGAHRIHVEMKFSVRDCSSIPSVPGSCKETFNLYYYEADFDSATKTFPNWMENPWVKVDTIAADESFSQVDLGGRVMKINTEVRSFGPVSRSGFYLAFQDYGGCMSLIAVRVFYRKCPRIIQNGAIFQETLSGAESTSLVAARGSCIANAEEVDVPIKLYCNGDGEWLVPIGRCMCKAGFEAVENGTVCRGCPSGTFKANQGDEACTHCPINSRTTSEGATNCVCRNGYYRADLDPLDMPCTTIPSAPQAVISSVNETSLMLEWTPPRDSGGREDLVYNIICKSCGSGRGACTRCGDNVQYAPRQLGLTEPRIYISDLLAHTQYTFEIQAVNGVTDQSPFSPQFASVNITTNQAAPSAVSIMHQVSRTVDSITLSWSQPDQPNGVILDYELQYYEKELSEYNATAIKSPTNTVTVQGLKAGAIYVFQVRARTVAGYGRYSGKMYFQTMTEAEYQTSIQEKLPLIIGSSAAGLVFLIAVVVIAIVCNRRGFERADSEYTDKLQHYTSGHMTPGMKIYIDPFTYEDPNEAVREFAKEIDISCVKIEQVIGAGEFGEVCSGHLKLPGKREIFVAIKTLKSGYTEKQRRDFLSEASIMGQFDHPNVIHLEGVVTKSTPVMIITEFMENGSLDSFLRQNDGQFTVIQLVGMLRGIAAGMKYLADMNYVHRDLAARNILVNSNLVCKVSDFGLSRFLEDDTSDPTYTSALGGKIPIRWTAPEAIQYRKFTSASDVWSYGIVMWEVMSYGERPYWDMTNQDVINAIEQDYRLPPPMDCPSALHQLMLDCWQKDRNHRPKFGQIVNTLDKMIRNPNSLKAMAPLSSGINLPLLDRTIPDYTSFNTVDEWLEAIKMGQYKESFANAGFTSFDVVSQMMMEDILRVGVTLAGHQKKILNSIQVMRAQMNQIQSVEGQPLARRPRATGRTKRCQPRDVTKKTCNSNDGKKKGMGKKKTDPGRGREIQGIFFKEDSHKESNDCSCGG

[17] = Cell cycle arrest in human Rh30 cells assessed as increase in G1 cell population at 1 to 10 uM by flow cytometric analysis; format: functional, cell-based; settings: SJRH30
[18] = Inhibition of PI3K-mediated Akt phosphorylation at Ser473 at 3 uM by Western blot analysis
[19] = target: Receptor tyrosine-protein kinase erbB-2 (Homo sapiens) (UniProt P04626); experiment: Inhibition of ErbB2 at 10 uM
Chain of Receptor tyrosine-protein kinase erbB-2 (Homo sapiens) (P04626 whole entry): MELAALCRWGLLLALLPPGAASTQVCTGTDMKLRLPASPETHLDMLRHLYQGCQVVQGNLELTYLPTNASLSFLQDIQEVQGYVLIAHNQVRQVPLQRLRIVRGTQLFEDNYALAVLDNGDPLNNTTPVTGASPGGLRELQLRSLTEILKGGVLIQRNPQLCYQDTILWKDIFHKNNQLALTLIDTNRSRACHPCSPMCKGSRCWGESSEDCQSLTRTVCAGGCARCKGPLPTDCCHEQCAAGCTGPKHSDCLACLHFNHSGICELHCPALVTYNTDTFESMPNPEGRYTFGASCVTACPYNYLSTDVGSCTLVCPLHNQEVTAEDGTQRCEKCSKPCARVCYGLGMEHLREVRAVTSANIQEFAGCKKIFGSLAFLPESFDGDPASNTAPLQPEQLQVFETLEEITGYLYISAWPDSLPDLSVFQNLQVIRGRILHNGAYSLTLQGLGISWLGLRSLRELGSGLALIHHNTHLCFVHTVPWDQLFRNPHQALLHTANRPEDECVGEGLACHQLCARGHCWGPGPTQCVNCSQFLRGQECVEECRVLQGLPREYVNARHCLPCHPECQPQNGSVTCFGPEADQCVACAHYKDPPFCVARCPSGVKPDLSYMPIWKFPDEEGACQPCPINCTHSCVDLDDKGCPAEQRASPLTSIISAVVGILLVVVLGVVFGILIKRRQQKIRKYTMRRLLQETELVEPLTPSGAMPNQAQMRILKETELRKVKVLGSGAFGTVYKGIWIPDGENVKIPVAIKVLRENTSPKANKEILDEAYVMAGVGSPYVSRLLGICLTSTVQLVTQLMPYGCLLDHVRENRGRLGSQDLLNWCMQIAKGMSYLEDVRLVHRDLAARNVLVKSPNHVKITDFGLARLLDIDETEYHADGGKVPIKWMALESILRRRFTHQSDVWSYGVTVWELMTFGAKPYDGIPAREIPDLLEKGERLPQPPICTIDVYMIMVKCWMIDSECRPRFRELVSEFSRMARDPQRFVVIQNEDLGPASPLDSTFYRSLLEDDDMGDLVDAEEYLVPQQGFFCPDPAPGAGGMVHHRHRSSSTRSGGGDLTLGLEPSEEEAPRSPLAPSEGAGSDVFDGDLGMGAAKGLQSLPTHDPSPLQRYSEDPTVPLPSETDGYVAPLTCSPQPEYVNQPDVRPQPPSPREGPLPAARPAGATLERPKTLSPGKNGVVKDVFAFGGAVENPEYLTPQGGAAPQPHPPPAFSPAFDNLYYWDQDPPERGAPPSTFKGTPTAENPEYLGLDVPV

[20] = Antiproliferative activity against human BEL-7402 cells
[21] = target: Vascular endothelial growth factor receptor 2 (Homo sapiens) (UniProt P35968); settings: at 10 µM
Description: Inhibition of KDR at 10 uM

[22] = Inhibition of PI3K-mediated mTOR pathway by Western blot analysis
[23] = target: Platelet-derived growth factor receptor beta (Homo sapiens) (UniProt P09619); experiment: Inhibition of PDGFRbeta at 10 uM

Chain of Proto-oncogene tyrosine-protein kinase Src (Homo sapiens) (P12931 2-536 limits assumed): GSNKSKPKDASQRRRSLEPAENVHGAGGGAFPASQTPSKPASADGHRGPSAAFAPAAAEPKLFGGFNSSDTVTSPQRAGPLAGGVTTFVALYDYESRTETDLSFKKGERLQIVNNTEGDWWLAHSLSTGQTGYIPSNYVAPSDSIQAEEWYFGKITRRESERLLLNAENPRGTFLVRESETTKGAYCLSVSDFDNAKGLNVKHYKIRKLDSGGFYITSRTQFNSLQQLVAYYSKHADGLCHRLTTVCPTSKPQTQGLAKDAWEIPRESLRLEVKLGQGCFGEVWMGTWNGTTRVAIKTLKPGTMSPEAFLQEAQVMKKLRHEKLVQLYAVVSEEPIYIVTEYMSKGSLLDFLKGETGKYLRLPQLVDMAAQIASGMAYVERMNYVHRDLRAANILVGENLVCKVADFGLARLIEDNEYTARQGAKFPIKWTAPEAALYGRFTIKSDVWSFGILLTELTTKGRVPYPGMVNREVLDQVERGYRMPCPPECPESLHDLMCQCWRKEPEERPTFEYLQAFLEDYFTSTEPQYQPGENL

| Compound | inhibition [1] [%] | inhibition [2] [%] | inhibition [3] [%] | IC50 [4] [µM] | IC50 [5] [µM] | IC50 [6] [µM] | inhibition [7] [%] | inhibition [8] [%] | inhibition [9] [%] | inhibition [10] [%] | IC50 [11] [µM] | Akt pathway inhibition (qualitative) [12] | inhibition [13] | Activity [14] | inhibition [15] [%] | inhibition [16] [%] | Activity [17] | inhibition [19] [%] | IC50 [20] [µM] | inhibition [23] [%] | further results |
| --- | --- | --- | --- | --- | --- | --- | --- | --- | --- | --- | --- | --- | --- | --- | --- | --- | --- | --- | --- | --- | --- |
| CCC(=O)Oc1cccc(-c2nc(N3CCOCC3)c3cc4ncccc4n3n2)c1 | 52.8 | 29 | 43 | 18.7 | 0.544 | 4 | 17.6 | 31.7 | 13 | 23.7 | 30.4 | Dose-dependent effect | Active | Active | 26.8 | 48.6 | Active | 12.5 | 8.6 | 11.8 | inhibition [18]: Active; inhibition [21]: 25%; mTOR pathway inhibition (qualitative) [22]: Dose-dependent effect |
| Oc1cccc(-c2nc(N3CCOCC3)c3oc4ncccc4c3n2)c1 [PI-103] |  |  |  | 22.4 |  | 6.3 |  |  |  |  | > 50 |  |  |  |  |  | Active |  | 7 |  |  |
| Oc1cccc(-c2nc(N3CCOCC3)c3cc4ncccc4n3n2)c1 | 65.3 | 49.4 | 37.8 | 22.7 | 0.0336 | 6.7 | 37 | 43.8 | 41.2 | 35.2 | 22.3 | Dose-dependent effect | Active | Active | 17.4 | 44 | Active | 10.9 | 13.1 | 42.4 | inhibition [18]: Active; inhibition [21]: 39.2%; mTOR pathway inhibition (qualitative) [22]: Dose-dependent effect |
| Cc1nc(Nc2ncc(C(=O)Nc3c(C)cccc3Cl)s2)cc(N2CCN(CCO)CC2)n1 |  |  |  |  |  |  |  |  |  |  |  |  |  |  |  | 89.2 |  |  |  |  |  |
| N#C/C(=C\c1ccc(O)c(O)c1)C(=O)c1ccc(O)c(O)c1 |  |  |  |  |  |  |  |  |  | 82.2 |  |  |  |  |  |  |  |  |  |  |  |
| O=C(Oc1cccc(-c2nc(N3CCOCC3)c3cc4ncccc4n3n2)c1)c1ccco1 | 47.9 | 26.9 | 22.8 | 12.8 | 0.425 | 6 | 4.2 | 32.5 | 22.2 | 29.2 | 21.6 | Dose-dependent effect | inactive | Active | 11.8 | 35.8 | Active | 23.6 | 9.3 | 13.5 | inhibition [18]: inactive; inhibition [21]: 24.7%; mTOR pathway inhibition (qualitative) [22]: Dose-dependent effect |
| CC(=O)Oc1cccc(-c2nc(N3CCOCC3)c3cc4ncccc4n3n2)c1 | 40 | 24.7 | 19 | 14.4 | 0.0497 | 3.8 | 9.4 | 29 | 21.8 | 33.4 | > 50 | Dose-dependent effect | Active | Active | 4.6 | 37.2 | Active | 7.1 | 12.1 | 0 | inhibition [18]: Active; inhibition [21]: 23.1%; mTOR pathway inhibition (qualitative) [22]: Dose-dependent effect |
| CCCC(CCC)C(=O)Oc1cccc(-c2nc(N3CCOCC3)c3cc4ncccc4n3n2)c1 | 49.8 | 24.9 | 14.4 | 7.3 | 0.0607 | 2.5 | 23.1 | 29 | 28.7 | 32.7 | 37.5 | Dose-dependent effect | Active | Active | 20.2 | 49.2 | Active | 25.6 | 5.6 | 13.6 | inhibition [18]: Active; inhibition [21]: 29.1%; mTOR pathway inhibition (qualitative) [22]: Dose-dependent effect |
| O=C(Oc1cccc(-c2nc(N3CCOCC3)c3cc4ncccc4n3n2)c1)c1ccncc1 | 67.2 | 45.2 | 28.9 | 20 | 0.421 | 10 | 27.2 | 34.8 | 40 | 39.8 | 28 | Dose-dependent effect | inactive | Active | 6.2 | 53.8 | Active | 23.3 | 13.3 | 34.7 | inhibition [18]: inactive; inhibition [21]: 35.4%; mTOR pathway inhibition (qualitative) [22]: Dose-dependent effect |
| Cc1[nH]c(/C=C2\C(=O)Nc3ccc(S(=O)(=O)N(C)c4cccc(Cl)c4)cc32)c(C)c1C(=O)N1CCN(C)CC1 |  |  |  |  |  |  | 52.2 | 61.8 |  |  |  |  |  |  |  |  |  |  |  |  |  |
| C=CC(=O)Oc1cccc(-c2nc(N3CCOCC3)c3cc4ncccc4n3n2)c1 | 56.2 | 18.9 | 31.9 | 15.3 | 0.0478 | 4 | 3.3 | 32.8 | 29.4 | 41.1 | 29.9 | Dose-dependent effect | Active | Active | 17.8 | 53.4 | Active | 21.3 | 7.9 | 6.3 | inhibition [18]: Active; inhibition [21]: 28.4%; mTOR pathway inhibition (qualitative) [22]: Dose-dependent effect |
| CS(=O)(=O)CCNCc1ccc(-c2ccc3ncnc(Nc4ccc(OCc5cccc(F)c5)c(Cl)c4)c3c2)o1 |  |  |  |  |  |  |  |  |  |  |  |  |  |  |  |  |  | 78 |  |  |  |
| CCCC(=O)Oc1cccc(-c2nc(N3CCOCC3)c3cc4ncccc4n3n2)c1 | 48.2 | 25.4 | 25.8 | 6.1 | 0.511 | 1.4 | 7.4 | 33.9 | 14 | 15.6 | 16.4 | Dose-dependent effect | Active | Active | 16 | 53 | Active | 12.5 | 3.6 | 5.1 | inhibition [18]: Active; inhibition [21]: 25.6%; mTOR pathway inhibition (qualitative) [22]: Dose-dependent effect |
| CCN(CC)CCNC(=O)c1c(C)[nH]c(/C=C2\C(=O)Nc3ccc(F)cc32)c1C |  | 84.8 | 84.8 |  |  |  |  |  | 93 |  |  |  |  |  |  |  |  |  |  | 90.6 |  |
